# Like-named read-outs stand apart in the source and are kept apart here.
# Experiments:
# [1] = tested on: suspension-cultured corn cells (var. Black Mexican Sweet); experiment: Growth inhibition of suspension-cultured corn cells; assay type: cell-based, corn (maize); conditions: four days
# α-amylase activity = conditions: Nakano et al. 1995; cited from earlier work
# excised wheat embryos = experiment: Wheat embryo germination inhibition; assay type: in vivo, Triticum aestivum L. cv. Clark's Cream; conditions: in vivo
# Procedure: Grains of soft white wheat (Triticum aestivum L. cv. Clark's Cream) were used. For bioassay, embryos with some adhering endosperm and pericarp attached were cut from the grains with a razor blade. Analogs were prepared by dissolving into a minimal amount of DMSO to prepare a 0.1 M solution, and then diluted with […], pH 5.8, to 0.01, 0.1, 1, 10 and 100 μM. For each analog concentration six replicate germination assays were conducted on 10 embryos each at 30° C. Embryos were incubated in Petri dishes (100×15 mm) containing 6 ml solution.
# [2] = tested on: ABA-responsive cor6.6 promoter; experiment: ABA-inducible gene expression (GUS activity) in transgenic tobacco seedlings containing Pcor6.6-GUS; assay type: in vivo, transgenic tobacco (promoter from Arabidopsis thaliana); conditions: 24 hours (FIG. 15)
# Source text: The results shown are an average of duplicate assays on samples containing 34 seedlings.
# The results shown are an average of duplicate samples containing cotyledons from 34 seedlings.
# lettuce seed = conditions: Nakano et al. 1995; cited from earlier work
# [3] = tested on: stomatal opening of spiderwort; conditions: Nakano et al. 1995, cited from earlier work
# rice seedling leaves = conditions: Nakano et al. 1995; cited from earlier work
# [4] = tested on: suspension-cultured corn cells; conditions: Balsevich et al 1994; cited from earlier work
# [5] = background; cited from earlier work
# [6] = tested on: Interior spruce seedlings; experiment: Drought avoidance of transplanted spruce seedlings; assay type: in vivo
# Source text: (§1) The ABA analog was applied as a spray-root drench that stimulated application through a nursery irrigation system. Seedlings with intact root-soil plugs were placed in a container, and ABA analog treatments were applied as a top drench. Treated seedlings were kept in the large container where the treatment flow-through was allowed to be re-absorbed into the plugs over a two day period. This ensured that all of the treatment was taken up by the root plugs and was available to seedlings. During testing, root-soil plugs were kept intact, enabling ABA analog treatments to be retained in close contact with the root system.
# (§2) For this testing program, ABA analog #365 was applied at 10^-4, […] and 10^-3 M concentrations. Analogs were dissolved in an acetone solution (@ 1%) to prepare ABA analog treatments. In addition, there was a control treatment of acetone only @ 1%. The analog treatments were applied one time, two days before the start of experimental measurements. Each seedling received approximately 20 ml of either an analog or a control solution.
# Just after treatment application, seedlings (n=75) were put through a rapid eight to fifteen day drought. Seedlings were watered to saturation during ABA analog application. After 24 to 48 hours, when all of the ABA analog solution was absorbed by the seedling root plug, root systems were enclosed in a plastic bag and placed in a darkened chamber with the shoot systems exposed to the above described controlled environment conditions. Seedlings were allowed to dry out through shoot transpiration. Gas exchange parameters (Pn, and gwv) of seedlings (n=8) from each treatment were measured during each daylight period. At each gas exchange measurement time, seedlings were measured with a pressure chamber to determine .psi., Changes in gas exchange parameters and seedling water balance were determined over time.
# A study was conducted to determine how the ABA analog influenced seedling response to potentially lethal soil drought. It was hypothesized that ABA analogs limit water use and delay deleterious physiological conditions in seedlings under limited soil water availability. The ABA analog would allow seedlings to avoid a potentially lethal drought stress to survive and have normal morphological development.
# Just after treatment application, seedlings (n=75) were put through a rapid drought. Over the drought, seedlings were measured with a pressure chamber to determine .psi..
# [7] = tested on: Interior spruce seedlings; experiment: Gas exchange of spruce seedlings; assay type: in vivo; conditions: optimum conditions; longer periods at higher concentrations (FIGS. 19-21)
# Source text: as §1
# as §2, with “Each seedling received approximately 20 ml of either an analog or a control solution.” left out
# Gas exchange parameters (net photosynthesis (Pn), needle conductance (gwv), water use efficiency-not reported) were determined on the seedlings treated with the ABA analog at each concentration (n=8). […] Gas exchange parameters were assessed 9 times across the first 20 days of the measurement period. Thereafter, gas exchange parameters were periodically assessed at 5 times from day 20 until the 52nd day of the measurement period.
# [8] = tested on: Interior spruce seedlings; experiment: Growth of transplanted spruce seedlings; assay type: in vivo
molecule,measurement,setting,value
CC[C@@]1(C)CC(=O)C=C(C)[C@]1(O)/C=C/C(C)=C\C(=O)O [(+)-8'-methyl ABA],growth inhibition activity (comparison in words),[1],comparable to that produced by (+)-ABA
same,blocking of GA3 stimulated α-amylase activity,α-amylase activity,nearly as active as (+)-ABA
same,"germination inhibitory activity, wheat embryos (in words)",excised wheat embryos,more active than (+)-ABA
same,fold weaker than ABA as inducer of GUS,[2],about 3 fold
same,lettuce seed germination inhibition,lettuce seed,more active than (+)-ABA
same,activity in stomatal opening,[3],more active than (+)-ABA
same,activity in stomatal opening,[3]; listed as 8'-methyl analog,only slightly weaker than ABA
same,activity in elongation of rice seedling leaves,rice seedling leaves,more active than (+)-ABA
"CC(=C/C(=O)O)/C=C/[C@]1(O)[C@@]2(C)CO[C@]1(C)CC(=O)C2 [Phaseic acid, phaseic acid]",shift (elevation) in pH of the medium (literature),[4],not produced by PA
same,activity in most assays,[5],little or no activity in most assays
Methyl 8'-methylene ABA [PBI-365],"drought avoidance capability, dependence on treatment concentration",[6]; FIG. 17,improved with higher treatment concentrations
same,needle conductance,[6]; drought conditions,reduction in needle conductance
same,seedling water balance,[6]; drought conditions,improved seedling water balance under drought conditions
same,drought avoidance capability,[6]; range of drought conditions,excellent drought avoidance capability
same,duration of reduction in gas exchange capability,[7],one to three
same,effect on seedling growth,[8]; moderate and severe drought conditions,no definitive effect on seedling growth
same,effect on seedling growth,[8]; near lethal drought conditions,positive influence on growth
same,long term effects on growth,[8]; optimum soil moisture conditions (FIG. 18),no long term negative effects on growth

# Source: patent US6004905A, “Hyperabas: biologically active abscisic acid analogs with unsaturated carbon substituents at the 8'-methyl or 9'-methyl carbon atoms” (National Research Council of Canada, priority 1998, dated 1999)
